In assay [1] the target is T1, Estrogen receptor beta (Homo sapiens, UniProt Q92731).
For assay [2], the target named is T1, Estrogen receptor beta. The assay is described as follows: blockers of SRC-3 recruitment to ERβ – biochemical, ELISA, streptavidin-HRP readout, orthogonal assay, confirmation (AID 1060). (In general: An ELISA detects its analyte on a solid surface through an enzyme-linked reagent.)
In the next assay the target is T2, Protein RecA (Mycobacterium tuberculosis, UniProt P9WHJ3).
T2 sequence (P9WHJ3 whole entry): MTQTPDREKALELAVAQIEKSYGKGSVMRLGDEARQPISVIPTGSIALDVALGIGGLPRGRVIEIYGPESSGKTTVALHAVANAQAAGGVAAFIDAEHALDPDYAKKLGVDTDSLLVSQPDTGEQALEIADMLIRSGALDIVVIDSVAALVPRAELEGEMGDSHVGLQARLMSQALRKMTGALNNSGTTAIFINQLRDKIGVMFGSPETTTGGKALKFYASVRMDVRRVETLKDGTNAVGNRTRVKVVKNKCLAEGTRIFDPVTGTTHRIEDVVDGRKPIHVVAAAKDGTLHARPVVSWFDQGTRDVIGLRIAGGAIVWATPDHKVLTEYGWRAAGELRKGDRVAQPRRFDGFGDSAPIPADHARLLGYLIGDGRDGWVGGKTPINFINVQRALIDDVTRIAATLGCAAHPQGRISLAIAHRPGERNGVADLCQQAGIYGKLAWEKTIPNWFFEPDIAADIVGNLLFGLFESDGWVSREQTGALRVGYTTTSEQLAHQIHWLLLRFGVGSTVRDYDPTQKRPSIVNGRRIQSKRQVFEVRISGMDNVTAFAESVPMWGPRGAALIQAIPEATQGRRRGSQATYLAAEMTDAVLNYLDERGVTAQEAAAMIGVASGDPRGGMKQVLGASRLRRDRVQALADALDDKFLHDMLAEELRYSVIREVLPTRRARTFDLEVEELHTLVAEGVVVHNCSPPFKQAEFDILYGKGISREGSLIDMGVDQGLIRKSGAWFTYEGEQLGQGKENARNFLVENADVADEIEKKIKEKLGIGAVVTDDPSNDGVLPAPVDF
The assay is described as follows: Fluorescence Cell-Free Homogeneous Dose Retest to Identify Inhibitors of RecA-Intein Splicing Activity. [Related pubchem assays (depositor defined):AID2097, AID2223, AID489010, AID492950]. It is filed as functional.

In the next assay the target is T3, Protein Tat (Human immunodeficiency virus type 1 group M subtype B (isolate HXB2)(HIV-1), UniProt P04608).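 Also: tat binding to TAR RNA read out by fluorescence polarization.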
T3 sequence (P04608 whole entry): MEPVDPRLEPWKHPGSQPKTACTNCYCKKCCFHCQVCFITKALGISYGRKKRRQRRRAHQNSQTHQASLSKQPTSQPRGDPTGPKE
It is filed as functional.

Assay [3] addresses T4, Replicative DNA helicase DnaB (Mycobacterium tuberculosis, UniProt P9WMR3).
T4 sequence (P9WMR3 whole entry): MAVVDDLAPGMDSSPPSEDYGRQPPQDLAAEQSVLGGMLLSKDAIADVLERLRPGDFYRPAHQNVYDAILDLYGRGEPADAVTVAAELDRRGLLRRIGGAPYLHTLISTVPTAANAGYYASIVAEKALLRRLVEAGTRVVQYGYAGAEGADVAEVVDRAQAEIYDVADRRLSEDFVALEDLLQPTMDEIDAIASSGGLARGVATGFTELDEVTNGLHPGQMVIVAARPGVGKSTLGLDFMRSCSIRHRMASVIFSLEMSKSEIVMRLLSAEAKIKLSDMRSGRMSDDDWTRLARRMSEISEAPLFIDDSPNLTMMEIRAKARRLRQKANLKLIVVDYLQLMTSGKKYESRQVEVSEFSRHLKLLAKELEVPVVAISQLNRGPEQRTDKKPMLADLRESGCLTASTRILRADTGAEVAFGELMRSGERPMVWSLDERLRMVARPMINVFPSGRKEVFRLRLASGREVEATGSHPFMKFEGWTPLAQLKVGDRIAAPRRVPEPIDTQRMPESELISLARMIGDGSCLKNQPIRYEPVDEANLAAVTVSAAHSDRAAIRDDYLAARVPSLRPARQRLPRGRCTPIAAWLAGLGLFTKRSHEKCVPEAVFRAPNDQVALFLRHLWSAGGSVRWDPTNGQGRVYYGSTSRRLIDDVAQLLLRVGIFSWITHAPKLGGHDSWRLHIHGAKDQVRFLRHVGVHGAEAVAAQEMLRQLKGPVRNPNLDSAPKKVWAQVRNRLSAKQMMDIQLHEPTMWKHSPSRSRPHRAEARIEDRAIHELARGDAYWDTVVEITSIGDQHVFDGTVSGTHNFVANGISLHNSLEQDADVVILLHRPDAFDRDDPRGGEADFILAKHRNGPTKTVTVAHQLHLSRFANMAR
Put plainly: DnaB intein splicing inhibitors, dose response, biochemical, cell-free fluorescence (AID 449749). It is filed as functional.

For assay [4], the target named is T5, Apoptotic protease-activating factor 1 (Homo sapiens, UniProt O14727).
T5 sequence (O14727 whole entry): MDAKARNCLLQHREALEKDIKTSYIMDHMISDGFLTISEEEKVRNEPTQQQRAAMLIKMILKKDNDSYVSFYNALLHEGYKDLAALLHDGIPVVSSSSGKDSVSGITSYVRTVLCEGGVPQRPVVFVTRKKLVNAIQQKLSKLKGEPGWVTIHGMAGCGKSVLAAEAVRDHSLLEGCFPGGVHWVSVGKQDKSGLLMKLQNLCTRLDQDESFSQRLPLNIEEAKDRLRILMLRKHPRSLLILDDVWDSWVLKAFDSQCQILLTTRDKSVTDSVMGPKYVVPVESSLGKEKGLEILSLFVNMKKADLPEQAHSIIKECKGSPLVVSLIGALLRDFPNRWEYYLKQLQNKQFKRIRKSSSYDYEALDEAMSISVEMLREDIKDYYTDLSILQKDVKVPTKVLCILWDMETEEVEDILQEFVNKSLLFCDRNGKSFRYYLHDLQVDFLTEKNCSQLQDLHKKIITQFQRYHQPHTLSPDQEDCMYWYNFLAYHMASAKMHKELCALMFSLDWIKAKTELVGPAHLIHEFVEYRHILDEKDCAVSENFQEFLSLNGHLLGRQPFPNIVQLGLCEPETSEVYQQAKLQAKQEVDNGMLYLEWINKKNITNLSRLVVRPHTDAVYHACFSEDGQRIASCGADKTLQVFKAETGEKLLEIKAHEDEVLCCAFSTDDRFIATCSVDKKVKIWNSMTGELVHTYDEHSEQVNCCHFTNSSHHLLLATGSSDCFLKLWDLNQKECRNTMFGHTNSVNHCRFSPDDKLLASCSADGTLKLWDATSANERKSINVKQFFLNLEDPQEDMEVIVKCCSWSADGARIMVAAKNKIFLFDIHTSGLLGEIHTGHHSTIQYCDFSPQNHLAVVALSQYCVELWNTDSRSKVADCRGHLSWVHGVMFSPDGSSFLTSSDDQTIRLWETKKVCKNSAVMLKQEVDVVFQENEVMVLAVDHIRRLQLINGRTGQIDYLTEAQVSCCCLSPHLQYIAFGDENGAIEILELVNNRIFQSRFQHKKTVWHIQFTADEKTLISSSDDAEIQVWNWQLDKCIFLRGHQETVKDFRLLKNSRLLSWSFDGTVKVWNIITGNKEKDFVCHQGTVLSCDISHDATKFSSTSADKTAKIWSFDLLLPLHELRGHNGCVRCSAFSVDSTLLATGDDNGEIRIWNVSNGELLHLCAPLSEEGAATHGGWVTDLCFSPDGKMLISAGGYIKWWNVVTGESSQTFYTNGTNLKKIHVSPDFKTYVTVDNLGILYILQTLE
It is filed as functional.

Assay [5] deals with T6, Neuropeptide Y receptor type 1 (Homo sapiens, UniProt P25929).
T6 sequence (P25929 whole entry): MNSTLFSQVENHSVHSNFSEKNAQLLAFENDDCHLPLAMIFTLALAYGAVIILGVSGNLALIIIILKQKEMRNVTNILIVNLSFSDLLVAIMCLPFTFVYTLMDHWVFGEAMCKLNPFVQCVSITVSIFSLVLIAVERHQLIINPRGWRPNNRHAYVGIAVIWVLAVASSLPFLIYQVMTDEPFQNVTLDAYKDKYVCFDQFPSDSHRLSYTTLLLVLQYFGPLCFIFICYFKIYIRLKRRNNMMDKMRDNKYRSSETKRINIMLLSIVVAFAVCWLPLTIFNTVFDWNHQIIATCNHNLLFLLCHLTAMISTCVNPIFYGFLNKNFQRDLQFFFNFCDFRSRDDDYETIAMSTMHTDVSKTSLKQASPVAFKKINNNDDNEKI
The assay is described as follows: IC50 of human NPY-Y1 blockers – cell-based, dose response (AID 1277). It is filed as functional.

Assay [6] in a line: loss of viability in HepG2 cells – cell-based, CellTiter-Glo, cherry-picked, cytotoxicity control for Shn3 inhibitor project, dose response (AID 624134). It is filed as functional. (ATP-based viability assays read luminescence as a measure of living cells.)
A short description of assay [7]: viability of uninfected HEp-2 cells – cell-based, HTS, cytotoxicity control for RSV inhibitor project, dose response (AID 2410). It is filed as functional. Particulars: human respiratory syncytial virus.
The target of assay [8] is T7, Neuropeptide Y receptor type 2 (Homo sapiens, UniProt P49146).
T7 sequence (P49146 whole entry): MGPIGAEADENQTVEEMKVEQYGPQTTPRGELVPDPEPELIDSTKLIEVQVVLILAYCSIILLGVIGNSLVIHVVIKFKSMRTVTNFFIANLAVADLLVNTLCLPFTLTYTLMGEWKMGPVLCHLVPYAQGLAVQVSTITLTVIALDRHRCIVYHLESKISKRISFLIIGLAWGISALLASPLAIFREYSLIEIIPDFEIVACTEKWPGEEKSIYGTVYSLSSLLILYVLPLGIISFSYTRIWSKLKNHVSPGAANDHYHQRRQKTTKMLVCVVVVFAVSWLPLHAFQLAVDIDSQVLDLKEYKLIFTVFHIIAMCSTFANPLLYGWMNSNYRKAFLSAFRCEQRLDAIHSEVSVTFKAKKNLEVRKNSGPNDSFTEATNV
The assay is described as follows: IC50 for human NPY-Y2 blockade – cell-based, counter-screen for NPY-Y1 antagonist project, dose response (AID 1278). It is filed as functional. (In general: Counterscreens check selectivity or assay interference.)

Assay [9] in a line: reduction of Shn3 3'UTR-driven luciferase in osteoblasts – cell-based, Clone20 osteoblasts, firefly luciferase, cherry-picked, dose response (AID 624132).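 Also: firefly luciferase luminescence from reporter carrying the Shn3 3'UTR in osteoblasts.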 It is filed as functional.
Assay [10] is described as follows: non-specific 3'UTR reporter inhibition in Clone20-Shn3RL – cell-based, Renilla luciferase, cherry-picked, counter-screen for Shn3 inhibitor project, dose response (AID 624133). It is filed as functional.

The term IC50 denotes the concentration at which inhibition is half-maximal. Broadly, the EC50 is the concentration at which the effect is half-maximal. As usually defined, the AC50 is the midpoint of the concentration-response curve, whichever way the signal moves. As a reminder, the CC50 is the concentration that lowers cell viability or growth by half.

Activity calls are given as the source filed them.

T1 sequence (Q92731 whole entry): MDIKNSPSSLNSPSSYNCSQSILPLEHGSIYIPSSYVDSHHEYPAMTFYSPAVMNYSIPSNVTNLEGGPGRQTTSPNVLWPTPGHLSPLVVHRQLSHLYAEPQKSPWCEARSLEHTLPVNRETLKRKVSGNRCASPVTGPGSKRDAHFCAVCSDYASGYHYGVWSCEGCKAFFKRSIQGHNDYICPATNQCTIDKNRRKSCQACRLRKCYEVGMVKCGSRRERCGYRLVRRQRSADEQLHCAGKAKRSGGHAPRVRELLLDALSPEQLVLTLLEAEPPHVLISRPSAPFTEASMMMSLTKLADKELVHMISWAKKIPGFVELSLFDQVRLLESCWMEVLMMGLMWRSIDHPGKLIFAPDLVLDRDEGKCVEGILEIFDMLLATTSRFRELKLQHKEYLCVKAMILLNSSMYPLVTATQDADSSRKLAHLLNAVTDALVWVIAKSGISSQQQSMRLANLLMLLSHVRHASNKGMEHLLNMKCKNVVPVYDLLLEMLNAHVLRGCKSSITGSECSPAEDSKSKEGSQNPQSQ

Regarding `N#CC(C(=O)Nc1ccccc1)=C1CCCCC1`, at Estrogen receptor beta [1], the half-maximal inhibitory concentration (IC50) is given as > 50 µM (not active).

With `O=S(=O)(Nc1ccc(N2CCOCC2)cc1)c1cccs1`, the concentration for half-maximal inhibition (IC50) at Estrogen receptor beta [2] is > 50 µM (not active).

For the molecule `Nc1ccc(Oc2ncccn2)cc1`, the EC50 on Protein RecA was 13.8 µM (active). Besides, the figures for the IC50 (at Protein Tat; in [4]) were > 100 µM (active) and 25.7 µM (active), respectively. For the same molecule, the AC50 in assay [3] is 29.6 µM (active).

Consider `O=C(CSc1nnc(Nc2ccccc2F)s1)NCc1ccco1`, for which the values for the half-inhibitory concentration (IC50) on Estrogen receptor beta [1] and at Estrogen receptor beta [2] were 13.7 µM (active) and 0.142 µM (not active), respectively.

As for `NC(=O)Cc1c[nH]c2cccc(O)c12`, on Estrogen receptor beta [2], the IC50 was > 50 µM (not active).

With `CC(C)(C)n1nnnc1C(c1ccc(C(F)(F)F)cc1)N(Cc1ccccc1)Cc1ccco1` (stereo not given), the IC50 in assay [5] and in [8] was > 35 µM (not active) throughout. For the same molecule, the AC50 in [6] is 44.1 µM (active); in [9], 4.74 µM (active); in assay [10], 6.74 µM (active). Further, the CC50 in assay [7] was 9.91 µM (active).

Values taken from ChEMBL document CHEMBL1201862, “PubChem BioAssay data set” (2004).
